Assay results taken from patent publication US20230365546A1, “5-SUBSTITUTED INDOLE 3-AMIDE DERIVATIVES, PREPARATION METHOD AND USE THEREOF” (ORIGIANT PHARMACEUTICAL CO., LTD, priority 2020, published 2023).

Tests used:
[1] = target: RIPK1 (Homo sapiens (Human), UniProt Q13546); assay: In vitro kinase assay (Eurofins Kinase Profiler), IC50; format: biochemical; details: 0.001-10 μM, read-out: RIPK 1 (IC50)
[2] = test system: HT-29 cells; assay: Protection against programmed necrosis of HT-29 cells (TNF α/Smac mimetic/Z-VAD-FMK, CCK8); format: cell-based; details: Homo sapiens, TNF α/Smac mimetic/Z-VAD-FMK induced 24 h, CCK8, read-out: HT-29 (EC50)

Sequence of RIPK1 (Q13546 whole entry): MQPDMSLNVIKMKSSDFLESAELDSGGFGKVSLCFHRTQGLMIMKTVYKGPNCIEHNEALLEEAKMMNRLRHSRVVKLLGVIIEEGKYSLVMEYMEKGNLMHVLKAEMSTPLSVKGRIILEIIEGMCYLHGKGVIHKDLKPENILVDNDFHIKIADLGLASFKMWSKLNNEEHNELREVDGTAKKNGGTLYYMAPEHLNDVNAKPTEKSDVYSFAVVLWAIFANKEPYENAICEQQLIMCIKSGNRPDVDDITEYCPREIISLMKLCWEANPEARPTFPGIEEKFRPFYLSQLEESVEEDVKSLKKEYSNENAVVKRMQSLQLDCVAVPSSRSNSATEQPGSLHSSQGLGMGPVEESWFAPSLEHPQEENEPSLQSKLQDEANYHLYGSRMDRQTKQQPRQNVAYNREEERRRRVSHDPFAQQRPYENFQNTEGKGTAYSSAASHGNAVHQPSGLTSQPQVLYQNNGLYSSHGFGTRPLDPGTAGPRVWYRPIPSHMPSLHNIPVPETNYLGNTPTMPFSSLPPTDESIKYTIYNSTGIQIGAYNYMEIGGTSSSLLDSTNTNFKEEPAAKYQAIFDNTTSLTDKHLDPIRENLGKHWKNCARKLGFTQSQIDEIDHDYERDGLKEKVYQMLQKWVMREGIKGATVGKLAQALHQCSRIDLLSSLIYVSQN

## C[C@H](NC(=O)c1cn(C)c2ccc(-c3ccn4nc(NC(=O)C5CC5(F)F)nc4c3)cc12)c1cccc(F)c1 (stereo partly drawn) [Compound 142, 5-(2-(2,2-difluorocyclopropane-1-carboxamido)-[1,2,4]triazolo[1,5-a]pyridin-7-yl)-N-((S)-1-(3-fluorophenyl)ethyl)-1-methyl-1H-indole-3-Carboxamide]
[1]
  IC50: 10 to 100 nM
[2]
  EC50: < 1 nM

## C[C@H](NC(=O)c1cn(C)c2ccc(-c3ccn4nc(NC(=O)[C@H]5C[C@H]5F)nc4c3)cc12)c1cccc(F)c1 [Compound 143]
[1]
  IC50: 10 to 100 nM
[2]
  EC50: < 1 nM

## C[C@H](NC(=O)c1cn(C)c2ccc(-c3ccn4nc(NC(=O)[C@@H]5C[C@@H]5F)nc4c3)cc12)c1cccc(F)c1 [Compound 144]
[1]
  IC50: 10 to 100 nM
[2]
  EC50: < 1 nM

## C[C@H](NC(=O)c1cn(C)c2ccc(-c3ccn4nc(NC(=O)C5(F)CC5)nc4c3)cc12)c1cccc(F)c1 [Compound 145]
[1]
  IC50: 1 to 10 nM
[2]
  EC50: < 1 nM

## C[C@H](NC(=O)c1cn(C)c2ccc(-c3ccn4nc(NC(=O)C5CC(F)(F)C5)nc4c3)cc12)c1cccc(F)c1 [Compound 146]
[1]
  IC50: 1 to 10 nM
[2]
  EC50: < 1 nM

## C[C@H](NC(=O)c1cn(C)c2ccc(-c3ccn4nc(NC(=O)C5CCC(F)(F)CC5)nc4c3)cc12)c1cccc(F)c1 [Compound 147]
[1]
  IC50: 10 to 100 nM
[2]
  EC50: 1 to 10 nM

## C[C@H](NC(=O)c1cn(C)c2ccc(-c3ccn4nc(NC(=O)C(C)(C)CCl)nc4c3)cc12)c1cccc(F)c1 [Compound 148]
[1]
  IC50: ≥ 1000 nM
[2]
  EC50: ≥ 1000 nM

## CCn1cc(C(=O)N[C@@H](C)c2cccc(F)c2)c2cc(-c3ccn4nc(NC(=O)C5CC5)nc4c3)ccc21 [Compound 149]
[1]
  IC50: 10 to 100 nM
[2]
  EC50: < 1 nM

## CC(C)n1cc(C(=O)N[C@@H](C)c2cccc(F)c2)c2cc(-c3ccn4nc(NC(=O)C5CC5)nc4c3)ccc21 [Compound 150]
[1]
  IC50: 10 to 100 nM
[2]
  EC50: 1 to 10 nM

## CCCn1cc(C(=O)N[C@@H](C)c2cccc(F)c2)c2cc(-c3ccn4nc(NC(=O)C5CC5)nc4c3)ccc21 [Compound 151]
[1]
  IC50: 1 to 10 nM
[2]
  EC50: < 1 nM

## CCCCn1cc(C(=O)N[C@@H](C)c2cccc(F)c2)c2cc(-c3ccn4nc(NC(=O)C5CC5)nc4c3)ccc21 [Compound 152]
[1]
  IC50: 10 to 100 nM
[2]
  EC50: 10 to 100 nM

## CC(C)Cn1cc(C(=O)N[C@@H](C)c2cccc(F)c2)c2cc(-c3ccn4nc(NC(=O)C(C)C)nc4c3)ccc21 [Compound 153]
[1]
  IC50: 100 to 1000 nM
[2]
  EC50: 100 to 1000 nM

## COCCn1cc(C(=O)N[C@@H](C)c2cccc(F)c2)c2cc(-c3ccn4nc(NC(=O)C5CC5)nc4c3)ccc21 [Compound 154]
[1]
  IC50: 10 to 100 nM
[2]
  EC50: 1 to 10 nM

## C[C@H](NC(=O)c1cn(C)c2ccc(-c3ccc4nc(NC(=O)C5CC5)nn4c3)cc12)c1cccc(F)c1 [Compound 155]
[1]
  IC50: 10 to 100 nM
[2]
  EC50: 1 to 10 nM

## C[C@@H](NC(=O)c1cn(C)c2ccc(-c3ccn4nc(NC(=O)C5CC5)nc4c3)cc12)c1cccc(F)c1 [Compound 156]
[1]
  IC50: 10 to 100 nM
[2]
  EC50: < 1 nM

## CC(C)C(=O)Nc1nc2cc(-c3cnc4[nH]cc(C(=O)N[C@@H](C)c5cccc(F)c5)c4c3)ccn2n1 [Compound 157]
[1]
  IC50: 10 to 100 nM
[2]
  EC50: 1 to 10 nM

## CC(C)C(=O)Nc1nc2cc(-c3cnc4c(c3)c(C(=O)N[C@@H](C)c3cccc(F)c3)cn4C)ccn2n1 [Compound 158]
[1]
  IC50: 1 to 10 nM
[2]
  EC50: < 1 nM

## CC(C)C(=O)Nc1nc2cc(-c3cn(C)c4ncc(C(=O)N[C@@H](C)c5cccc(F)c5)cc34)ccn2n1 [Compound 159]
[1]
  IC50: 100 to 1000 nM
[2]
  EC50: 100 to 1000 nM

## C[C@H](NC(=O)c1ccc2ncc(-c3ccn4nc(NC(=O)C5CC5)nc4c3)cc2c1)c1cccc(F)c1 [Compound 160]
[1]
  IC50: 10 to 100 nM
[2]
  EC50: 10 to 100 nM

## C[C@H](NC(=O)c1cn(C)c2ccc(-c3ccn4nc(NC(=O)C5CCCO5)nc4c3)cc12)c1cccc(F)c1 (some centres unmarked) [Compound 161]
[1]
  IC50: 1 to 10 nM
[2]
  EC50: < 1 nM

## C[C@H](NC(=O)c1cn(C)c2ccc(-c3ccn4nc(NC(=O)N5CC[C@@H](O)C5)nc4c3)cc12)c1cccc(F)c1 [Compound 162, N-((S)-1-(3-fluorophenyl)ethyl)-5-(2-((R)-3-hydroxypyrrolidine-1-carboxamido)-[1,2,4]triazolo[1,5-a]pyridin-7-yl)-1-methyl-1H-indole-3-carboxamide]
[1]
  IC50: 10 to 100 nM
[2]
  EC50: 10 to 100 nM

## C[C@H](NC(=O)c1cn(C)c2ccc(-c3ccn4nc(NC(=O)N5CC[C@H](O)C5)nc4c3)cc12)c1cccc(F)c1 [Compound 163]
[1]
  IC50: 100 to 1000 nM
[2]
  EC50: 10 to 100 nM

## C[C@H](NC(=O)c1cn(C)c2ccc(-c3ccn4nc(NC(=O)N5CCC[C@H]5CO)nc4c3)cc12)c1cccc(F)c1 [Compound 164]
[1]
  IC50: 100 to 1000 nM
[2]
  EC50: 1 to 10 nM

## C[C@H](NC(=O)c1cn(C)c2ccc(-c3ccn4nc(NC(=O)N[C@@H](C)CO)nc4c3)cc12)c1cccc(F)c1 [Compound 165]
[1]
  IC50: 10 to 100 nM
[2]
  EC50: < 1 nM

## CC(NC(=O)c1cn(C)c2ccc(-c3ccn4nc(NC(=O)C5CC5)nc4c3)cc12)c1ccc(F)c(F)c1 (centres unmarked) [Compound 167]
[1]
  IC50: 10 to 100 nM
[2]
  EC50: 10 to 100 nM

## C[C@H](NC(=O)c1cn(C)c2ccc(-c3ccn4nc(NC(=O)N5CCCC(O)C5)nc4c3)cc12)c1cccc(F)c1 (some centres unmarked) [Compound 169]
[1]
  IC50: 1 to 10 nM
[2]
  EC50: < 1 nM

## C[C@H](NC(=O)c1cn(C)c2ccc(-c3ccn4nc(NC(=O)N5CCC(O)CC5)nc4c3)cc12)c1cccc(F)c1 [Compound 170]
[1]
  IC50: 1 to 10 nM
[2]
  EC50: < 1 nM

## CC(C)CNc1nc2cc(-c3ccc4c(c3)c(C(=O)N[C@@H](C)c3cccc(F)c3)cn4C)ccn2n1 [Compound 171]
[1]
  IC50: 1 to 10 nM
[2]
  EC50: < 1 nM

## C[C@H](NC(=O)c1cn(C)c2ccc(-c3ccn4nc(NC(=O)N5CC(O)C5)nc4c3)cc12)c1cccc(F)c1 [Compound 172]
[1]
  IC50: ≥ 1000 nM
[2]
  EC50: 100 to 1000 nM

## Cn1cc(C(=O)N2CCC[C@H]2c2cccc(F)c2)c2cc(-c3ccn4nc(NC(=O)C5CC5)nc4c3)ccc21 [Compound 173]
[1]
  IC50: 1 to 10 nM
[2]
  EC50: < 1 nM

## CC(C)C(=O)Nc1nc2cc(-c3ccc4c(c3)c(C(=O)N[C@@H](C)c3ccncc3)cn4C)ccn2n1 [Compound 175]
[1]
  IC50: 10 to 100 nM
[2]
  EC50: 10 to 100 nM

## C[C@H](NC(=O)c1cn(C)c2ccc(-c3ccn4nc(NC(=O)C5CC5)nc4c3)cc12)c1ccncc1 [Compound 176]
[1]
  IC50: 100 to 1000 nM
[2]
  EC50: 100 to 1000 nM

## C[C@H](NC(=O)c1cn(C)c2ccc(-c3ccn4nc(NC(=O)N5CCC[C@@H]5CO)nc4c3)cc12)c1cccc(F)c1 [Compound 177]
[1]
  IC50: 10 to 100 nM
[2]
  EC50: 10 to 100 nM

## C[C@H](NC(=O)c1cn(C)c2ccc(-c3ccn4nc(NC(=O)N5CCNCC5)nc4c3)cc12)c1cccc(F)c1 [Compound 178]
[1]
  IC50: 1 to 10 nM
[2]
  EC50: 1 to 10 nM

## C[C@H](NC(=O)c1cn(C)c2ccc(-c3ccn4nc(NC(=O)[C@H]5CCCN5)nc4c3)cc12)c1cccc(F)c1 [Compound 179]
[1]
  IC50: < 1 nM
[2]
  EC50: < 1 nM

## C[C@H](NC(=O)c1cn(C)c2ccc(-c3ccn4nc(NC(=O)[C@@H]5CCCN5)nc4c3)cc12)c1cccc(F)c1 [Compound 180]
[1]
  IC50: 1 to 10 nM
[2]
  EC50: < 1 nM

## COc1ccc([C@H](C)NC(=O)c2cn(C)c3ccc(-c4ccn5nc(NC(=O)C6CC6)nc5c4)cc23)cc1F [Compound 181]
[1]
  IC50: 100 to 1000 nM
[2]
  EC50: 100 to 1000 nM

## C[C@H](NC(=O)c1cn(C)c2ccc(-c3ccn4nc(NC(=O)C5CC5)nc4c3)cc12)c1ccc(F)c(F)c1 [Compound 182]
[1]
  IC50: 1 to 10 nM
[2]
  EC50: < 1 nM

## Cn1cc(C(=O)N[C@H]2CCc3ccc(F)cc32)c2cc(-c3ccn4nc(NC(=O)C5CC5)nc4c3)ccc21 [Compound 183]
[1]
  IC50: 100 to 1000 nM
[2]
  EC50: 100 to 1000 nM

## Cn1cc(C(=O)N[C@H]2CCCc3ccc(F)cc32)c2cc(-c3ccn4nc(NC(=O)C5CC5)nc4c3)ccc21 [Compound 184]
[1]
  IC50: 100 to 1000 nM
[2]
  EC50: 100 to 1000 nM

## Cn1cc(C(=O)N2CCCC2c2cccc(F)c2)c2cc(-c3ccn4nc(NC(=O)C5CC5)cc4n3)ccc21 (centres unmarked) [Compound 185]
[1]
  IC50: 1 to 10 nM
[2]
  EC50: < 1 nM

## C[C@H](NC(=O)c1cn(C)c2ncc(-c3ccn4nc(NC(=O)C5CC5)nc4c3)cc12)c1cccc(F)c1 [Compound 186]
[1]
  IC50: 100 to 1000 nM
[2]
  EC50: 100 to 1000 nM

## Cn1cc(C(=O)N2CCCC2c2cccc(F)c2)c2cc(-c3ccc4nc(NC(=O)C5CC5)cn4n3)ccc21 (centres unmarked) [Compound 187]
[1]
  IC50: < 1 nM
[2]
  EC50: < 1 nM

## Cn1cc(C(=O)N[C@H]2CCCc3ccccc32)c2cc(-c3ccc4nc(NC(=O)C5CC5)cn4n3)ccc21 [Compound 188]
[1]
  IC50: 100 to 1000 nM
[2]
  EC50: 100 to 1000 nM

## Cc1cccc(C2CCCN2C(=O)c2cn(C)c3ccc(-c4ccn5nc(NC(=O)C6CC6)nc5c4)cc23)c1 (centres unmarked) [Compound 189]
[1]
  IC50: 100 to 1000 nM
[2]
  EC50: 100 to 1000 nM

## Cn1cc(C(=O)N2CCCC2c2cc(F)ccc2F)c2cc(-c3ccn4nc(NC(=O)C5CC5)nc4c3)ccc21 (centres unmarked) [Compound 190]
[1]
  IC50: 1 to 10 nM
[2]
  EC50: 1 to 10 nM
